The results in this text go back to patent US4156724A, “N-acylamino-alpha-arylacetamido cephalosporins and antibacterial compositions and methods containing them” (Sumitomo Chemical Company, Limited, priority 1974, dated 1979).

Holding throughout (format): cell-based
The subject of one assay is Escherichia coli NIHJ. As to the kind of experiment: Minimum Inhibitory Concentration, Escherichia coli NIHJ. Conditions: Escherichia coli NIHJ; read-out: Minimum Inhibitory Concentration. Here is the method:
(§1) anti-microbial activity tests were carried out on the compounds obtained in the Examples.

The test system of assay [1] is Enterobacter aerogeneus No. 75. As to the kind of experiment: Minimum Inhibitory Concentration, Enterobacter aerogeneus No. 75. Conditions: Enterobacter aerogeneus No. 75; read-out: Minimum Inhibitory Concentration. Here is the method:
as §1

In assay [2] the test system is Staphylococcus aureus 209 P. The experiment in a line: Minimum Inhibitory Concentration, Staphylococcus aureus 209 P. Conditions: Staphylococcus aureus 209 P; read-out: Minimum Inhibitory Concentration. Here is the method: as §1
In assay [3] the test system is Pseudomonas aeruginosa 104. As to the kind of experiment: Minimum Inhibitory Concentration, Pseudomonas aeruginosa 104. Conditions: Pseudomonas aeruginosa 104; read-out: Minimum Inhibitory Concentration. Here is the method: as §1
Assay [4] relates to Klebsiella pneumoniae 602. The experiment in a line: Minimum Inhibitory Concentration, Klebsiella pneumoniae 602. The note with it: Klebsiella pneumoniae, 602, Klebsiella pneumoniae 602; read-out: Minimum Inhibitory Concentration. Here is the method: as §1
For another assay, the system named is Serratia No. 72. As to the kind of experiment: Minimum Inhibitory Concentration, Serratia No. 72. Here is the method:
as §1

The next assay deals with Proteus vulgaris HX 19. As to the kind of experiment: Minimum Inhibitory Concentration, Proteus vulgaris HX 19. Conditions: HX19; Proteus vulgaris HX 19; read-out: Minimum Inhibitory Concentration. Here is the method:
as §1

The subject of assay [5] is Staphylococcus aureus FS 289. As to the kind of experiment: Minimum Inhibitory Concentration, Staphylococcus aureus FS 289. Conditions: FS289; Staphylococcus aureus FS 289, strain resistant to penicillin; read-out: Minimum Inhibitory Concentration. Here is the method:
as §1
*Staphylococcus aureus FS 289: strain resistant to penicillin

Molecules are shown by their SMILES. Values after ≈ are worked out from the molar mass of the structure shown.

In the case of `CC(=O)OCC1=C(C(=O)O)N2C(=O)C(NC(=O)C(NC(=O)c3cnccc3O)c3ccc(O)c(O)c3)C2SC1` (stereo not drawn) [Example 182], the MIC was 12.5 µg/mL (≈ 22.4 µM) with Escherichia coli NIHJ; 25 µg/mL (≈ 44.8 µM) in assay [1]; 0.78 µg/mL (≈ 1.4 µM) in assay [2]; 12.5 µg/mL (≈ 22.4 µM) in assay [3]; 25 µg/mL (≈ 44.8 µM) in assay [4]; above 200 µg/mL against Serratia No. 72. Further, the MIC in the assay on Proteus vulgaris HX 19 was found to be 0.78 µg/mL (≈ 1.4 µM); in assay [5], 3.13 µg/mL (≈ 5.6 µM).

Turning to `Cc1nnc(SCC2=C(C(=O)O)N3C(=O)C(NC(=O)C(NC(=O)c4cnccc4O)c4ccc(O)c(O)c4)C3SC2)s1` (stereo not drawn) [Example 183], the MIC with Escherichia coli NIHJ was found to be 6.25 µg/mL (≈ 9.91 µM); in assay [1], 12.5 µg/mL (≈ 19.8 µM); in assay [2], 0.78 µg/mL (≈ 1.24 µM); in assay [3] it was 6.25 µg/mL (≈ 9.91 µM); in assay [4], 12.5 µg/mL (≈ 19.8 µM); against Serratia No. 72, 50 µg/mL (≈ 79.3 µM). The figures for the MIC (with Proteus vulgaris HX 19; in assay [5]) were 0.39 µg/mL (≈ 0.618 µM) and 6.25 µg/mL (≈ 9.91 µM), respectively.

Take `O=C(O)C1=C(CSc2nnc(CO)s2)CSC2C(NC(=O)C(NC(=O)c3cnccc3O)c3ccc(O)c(O)c3)C(=O)N12` (stereo not drawn) [Example 184]: the MIC in the assay on Escherichia coli NIHJ amounted to 6.25 µg/mL (≈ 9.66 µM); in assay [1], 12.5 µg/mL (≈ 19.3 µM); in assay [2], 0.78 µg/mL (≈ 1.21 µM); in assay [3] it was 6.25 µg/mL (≈ 9.66 µM); in assay [4] it was 12.5 µg/mL (≈ 19.3 µM); with Serratia No. 72, 50 µg/mL (≈ 77.3 µM). Further, the figures for the MIC (with Proteus vulgaris HX 19; in assay [5]) were 0.78 µg/mL (≈ 1.21 µM) and 6.25 µg/mL (≈ 9.66 µM), respectively.

Turning to `Cn1nnnc1SCC1=C(C(=O)O)N2C(=O)C(NC(=O)C(NC(=O)c3cnccc3O)c3ccc(O)c(O)c3)C2SC1` (stereo not drawn) [Example 185], the MIC is 6.25 µg/mL (≈ 10.2 µM) in the assay on Escherichia coli NIHJ; 12.5 µg/mL (≈ 20.3 µM) in assay [1]; 0.78 µg/mL (≈ 1.27 µM) in assay [2]; 6.25 µg/mL (≈ 10.2 µM) in assay [3]; 6.25 µg/mL (≈ 10.2 µM) in assay [4]; 50 µg/mL (≈ 81.4 µM) in the assay on Serratia No. 72. The results for the MIC (in the assay on Proteus vulgaris HX 19; in assay [5]) were 0.39 µg/mL (≈ 0.635 µM) and 6.25 µg/mL (≈ 10.2 µM), respectively.

Take `O=C(O)C1=C(CSc2cnn[nH]2)CSC2C(NC(=O)C(NC(=O)c3cnccc3O)c3ccc(O)c(O)c3)C(=O)N12` (stereo not drawn) [Example 186]: the MIC in the assay on Escherichia coli NIHJ is 6.25 µg/mL (≈ 10.4 µM); in assay [1] it was 12.5 µg/mL (≈ 20.8 µM); in assay [2], 0.78 µg/mL (≈ 1.3 µM); in assay [3], 12.5 µg/mL (≈ 20.8 µM); in assay [4], 12.5 µg/mL (≈ 20.8 µM); in the assay with Serratia No. 72, 50 µg/mL (≈ 83.4 µM). Besides, the MIC in the assay with Proteus vulgaris HX 19 came to 0.78 µg/mL (≈ 1.3 µM); in assay [5] it was 6.25 µg/mL (≈ 10.4 µM).

Take `Cn1nnnc1SCC1=C(C(=O)O)N2C(=O)C(NC(=O)C(NC(=O)c3cnccc3O)c3ccc(O)c(F)c3)C2SC1` (stereo not drawn) [Example 187]: the MIC worked out at 6.25 µg/mL (≈ 10.1 µM) in the assay on Escherichia coli NIHJ; 12.5 µg/mL (≈ 20.3 µM) in assay [1]; 0.78 µg/mL (≈ 1.26 µM) in assay [2]; 6.25 µg/mL (≈ 10.1 µM) in assay [3]; 12.5 µg/mL (≈ 20.3 µM) in assay [4]; 50 µg/mL (≈ 81.1 µM) with Serratia No. 72. Further, the results for the MIC (in the assay on Proteus vulgaris HX 19; in assay [5]) were 0.39 µg/mL (≈ 0.632 µM) and 6.25 µg/mL (≈ 10.1 µM), respectively.
